Reference: US11999746B2, “Compounds” (GlaxoSmithKline Intellectual Property Development Limited, priority 2014, dated 2024)

Experiments:
[1] = biological target: T1, recombinant human Lp-PLA2 (Homo sapiens, UniProt Q13093); experiment: (1a) PED6 assay, recombinant human Lp-PLA2 (rhLp-PLA2); assay type: biochemical; settings: Examples 1-167 and 413-430 were tested here, one experiment or average of multiple experiments, read-out: rhLp-PLA2 (pIC50) (converted)
T1 sequence (Q13093 22-441): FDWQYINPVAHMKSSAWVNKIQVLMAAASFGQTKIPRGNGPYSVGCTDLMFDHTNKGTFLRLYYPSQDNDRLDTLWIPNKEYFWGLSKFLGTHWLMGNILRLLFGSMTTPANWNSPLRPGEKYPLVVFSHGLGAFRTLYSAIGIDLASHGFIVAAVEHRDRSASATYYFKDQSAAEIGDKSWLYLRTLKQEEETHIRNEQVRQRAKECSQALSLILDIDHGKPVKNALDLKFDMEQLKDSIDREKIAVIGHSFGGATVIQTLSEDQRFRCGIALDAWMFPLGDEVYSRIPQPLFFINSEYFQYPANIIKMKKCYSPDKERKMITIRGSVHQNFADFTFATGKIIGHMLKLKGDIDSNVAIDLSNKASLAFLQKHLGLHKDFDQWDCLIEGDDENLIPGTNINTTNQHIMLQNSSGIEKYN
Description: (1) Recombinant Human Lp-PLA2 Assays (rhLp-PLA2)
N-((6-(2,4-Dinitrophenyl)amino)-hexanoyl)-2-(4,4-difluoro-5,7-dimethyl-4-bora-3a,4a-diaza-s-indacene-3-pentanoyl)-1-hexadecanoyl-sn-glycero-3-phosphoethanolamine, triethylammonium salt (PED6) is a commercially available fluorescently-labeled phospholipid, which is commercially available from Invitrogene and Molecular Probes. There is a quenching […] and a Bodipy fluorescein (FL) group in the sn2 position. Upon cleavage with Lp-PLA2, the Bodipy FL group is liberated and then may result in an increase in fluorescence. Inhibitors of Lp-PLA2 therefore prevent this cleavage and no fluorescent increase is observed.
The PED6 assay was run as an unquenched 10 μL assay. The source plate containing the compounds to be tested was prepared by making 1:3 (by volume) serial dilution of the compounds within DMSO on 384-well microplate. Then, 0.01 μL of the compounds on compound source plate were transferred into 384 well Greiner 784076 (black) plates using ECHO liquid dispenser. 5 μL of recombinant human Lp-PLA2 enzyme (4 nM) rhLp-PLA2 in assay buffer of 50 mM HEPES, pH 7.4, 150 mM NaCl, 1 mM CHAPS) was added to each well of the plate. Plates were centrifuged for 10 sec at 500 rpm. After 30 minutes preincubation, 5 μL of substrate (4 μM PED6 [from 5 mM DMSO stock] in assay buffer of 50 mM HEPES, pH 7.4, 150 mM NaCl, 1 mM CHAPS) was added to 384 well Greiner 784076 (black) plates. Plates were centrifuged for 10 sec at 500 rpm. The plate was covered to protect it from light and incubated for 20 min at room temperature. The plates were read for fluorescence intensity at ex: 480/em: 540 using ViewLux microplate imager for Envision spectrofluroimeters. pIC50 data, curve and QC analysis was conducted by using XL fit module in Excel.

Lp-PLA2 in human plasma = biological target: T2, Lp-PLA2 in human plasma (Homo sapiens, UniProt Q13093); experiment: (3a) Lp-PLA2 human plasma Thio-PAF assay; assay type: biochemical; settings: (3a) Thio-PAF assay, pooled human plasma; Examples 1-265 and 413-430 were tested here; read-out: pIC50 in the Lp-PLA2 human plasma assay (converted)
T2 construct: from tissue; host or cells: pooled human plasma
T2 sequence (Q13093 22-441): T1 sequence (Q13093 22-441)
Description: (3) Lipoprotein-Associated Phospholipase A2 (Lp-PLA2) Human Plasma Assay
The human plasma assay utilizes a thioester analog of PAF (phosphatidylcholine), where hydrolysis yields to the formation of a phospholipid containing a free thiol group. The amount of thiol is quantitated continuously by reacting with CPM (7-diethylamino-3-(4′-maleimidylphenyl)-4-methylcoumarin), a maleimide which increases in fluoresence after Michael addition of thiols. This assay may detect the activity of Lp-PLA2 in human plasma, as determined by specific inhibition by Lp-PLA2 inhibitors.
The thio-PAF assay was run as a quenched 15 μL assay. Compounds source plate was prepared by making 1:3 (by volume) serial dilution of the compounds into pure DMSO on 384-well microplate. 0.01 μL of compounds on compound source plate were transferred to 384 well Greiner 784076 (black) low-volume plates by ECHO liquid dispenser. 8 μL pooled human plasma, which was previously aliquoted and frozen, was added. Plates were centrifuged for 10 sec at 500 rpm. After 30 minutes preincubation, 2 μL of substrate solution comprising 2.5 mM 2-thio-PAF [from ethanol stock], 32 μM CPM [from a DMSO stock] and 3.2 mM NEM (N-ethylmaleimide) [made fresh daily in DMSO] in assay buffer of 50 mM HEPES, pH 7.4, 150 mM NaCl, 1 mM CHAPS was added to 384 well Greiner 784076 (black) low-volume plates by BRAVO liquid handling station. After 2 mins, reaction was quenched with 5 μL of 5% aqueous trifluoroacetic acid (TFA). Plates were covered to protect from light and incubated for 40 min at room temperature. Plates were read at ex: 380/em: 485 using Envision microplate reader. PIC50 data, curve and QC analysis were conducted by using XLFit module in Excel.

SMILES | IC50 [1] [nM] | IC50 (Lp-PLA2 in human plasma) [nM]
O=c1nc(OCc2cc(F)c(Oc3ccc(F)c(F)c3)c(F)c2)cc2n1C[C@@H]1CCCN21 [Example E74, (S)-3-((4-(3,4-difluorophenoxy)-3,5-difluorobenzyl)oxy)-7,8,8a,9-tetrahydropyrrolo[1′,2′:3,4]imidazo[1,2-c]pyrimidin-1(6H)-one] | ≤ 100 | ≤ 10000
O=c1nc(OCc2ccc(F)cc2F)cc2n1CC1CCCCN21 (stereo not shown) [Example E8, 3-((2,4-Difluorobenzyl)oxy)-6,7,8,9,9a,10-hexahydro-1H-pyrido[1′,2′:3,4]imidazo[1,2-c] pyrimidin-1-one] | ≤ 100 | ≤ 10000
O=c1nc(OCc2ccc(F)c(Cl)c2)cc2n1CC1CCCCN21 (stereo not shown) [Example E27, 3-((3-Chloro-4-fluorobenzyl)oxy)-6,7,8,9,9a,10-hexahydro-1H-pyrido[1′,2′:3,4]imidazo[1,2 c]pyrimidin-1-one] | ≤ 100 | ≤ 10000
O=c1nc(OCc2cc(F)c(Oc3ccc(C(F)(F)F)nc3)c(F)c2)cc2n1CC1CCCCN21 (stereo not shown) [Example E25, 3-((3,5-Difluoro-4-((6-(trifluoromethyl)pyridin-3-yl)oxy)benzyl)oxy)-6,7,8,9,9a,10-hexahydro-1H-pyrido[1′,2′:3,4]imidazo[1,2-c]pyrimidin-1-one] | ≤ 1 | ≤ 100
O=c1nc(OCc2ccc(F)c(F)c2)cc2n1C[C@@H]1CCCCN21 [Example E31, (S)-3-((3,4-Difluorobenzyl)oxy)-6,7,8,9,9a,10-hexahydro-1H-pyrido[1′,2′:3,4]imidazo[1,2-c]pyrimidin-1-one] | ≤ 100 | ≤ 10000
O=c1nc(OCc2ccc(Oc3cnc(C(F)(F)F)nc3)c(F)c2)cc2n1C[C@@H]1CCCN21 [Example E72, (S)-3-((3-fluoro-4-((2-(trifluoromethyl)pyrimidin-5-yl)oxy)benzyl)oxy)-7,8,8a, 9-tetra hydropyrrolo[1′,2′:3,4]imidazo[1,2-c]pyrimidin-1(6H)-one] | ≤ 100 | ≤ 10000
N#Cc1cccc(COc2cc3n(c(=O)n2)CC2CCCCN32)c1 (stereo not shown) [Example E6, 3-(((1-Oxo-6,7,8,9,9a,10-hexahydro-1H-pyrido[1′,2′:3,4]imidazo[1,2-c]pyrimidin-3-yl)oxy)methyl)benzonitrile] | ≤ 100 | ≤ 10000
O=c1nc(OCc2ccc(F)cc2)cc2n1C[C@@H]1CCCCN21 [Example E34, (S)-3-((4-Fluorobenzyl)oxy)-6,7,8,9,9a,10-hexahydro-1H-pyrido[1′,2′:3,4]imidazo-[1,2-c] pyrimidin-1-one] | ≤ 100 | ≤ 10000
CN1c2cc(OCc3cccc(F)c3)nc(=O)n2CC12CCC2 [Example 413] | ≤ 100 | ≤ 10000
CCn1cc(Oc2c(F)cc(COc3cc4n(c(=O)n3)CC3CCCN43)cc2F)cn1 (stereo not shown) [Example E64, 3-((4-((1-Ethyl-1H-pyrazol-4-yl)oxy)-3,5-difluorobenzyl)oxy)-7,8,8a, 9-tetrahydropyrrolo[1′,2′:3,4]imidazo[1,2-c]pyrimidin-1(6H)-one] | ≤ 100 | ≤ 10000

The next lines start with the values.

IC50 [1] [nM] | IC50 (Lp-PLA2 in human plasma) [nM] | SMILES
≤ 100 | ≤ 100 | O=c1nc(OCc2cc(F)c(F)c(F)c2)cc2n1C[C@H]1COCN21 [Example E146, (S)-6-((3,4,5-trifluorobenzyl)oxy)-10,10a-dihydro-1H-oxazolo[3′,4′:3,4]imidazo[1,2-c] pyrimidin-8(3H)-one]
≤ 100 | ≤ 10000 | Cn1cc(Oc2c(F)cc(COc3cc4n(c(=O)n3)C[C@H]3CCOCN43)cc2F)cn1 [Example E137, (R)-3-((3,5-difluoro-4-((1-methyl-1H-pyrazol-4-yl)oxy)benzyl)oxy)-8,9,9a,10-tetrahydropyrimido[6′,1′:2,3]imidazo[1,5-c][1,3]oxazin-1(6H)-one]
≤ 1 | ≤ 10000 | N#Cc1cc(COc2cc3n(c(=O)n2)C[C@@H]2CCCN32)ccc1Oc1cc(F)cc(F)c1 [Example E88, (S)-2-(3,5-difluorophenoxy)-5-(((1-oxo-1,6,7,8,8a,9-hexahydropyrrolo[1′,2′:3,4]imidazo[1,2-c]pyrimidin-3-yl)oxy)methyl)benzonitrile]
≤ 100 | ≤ 10000 | O=c1nc(OCc2ccc(Oc3ccc(F)c(C(F)(F)F)c3)nc2)cc2n1CC1CCCN21 (stereo not shown) [Example E82, 3-((6-(4-fluoro-3-(trifluoromethyl)phenoxy)pyridin-3-yl)methoxy)-7,8,8a,9-tetrahydro pyrrolo[1′,2′:3,4]imidazo[1,2-c]pyrimidin-1(6H)-one]
≤ 100 | ≤ 10000 | CCCCN1CC(Oc2c(F)cc(COc3cc4n(c(=O)n3)CC3CCCN43)cc2F)C1 (stereo not shown) [Example E98, 3-((4-((1-Butylazetidin-3-yl)oxy)-3,5-difluorobenzyl)oxy)-7,8,8a,9-tetrahydropyrrolo[1′,2′:3,4]imidazo[1,2-c]pyrimidin-1(6H)-one]
≤ 100 | ≤ 10000 | CCn1cc(Oc2c(F)cc(COc3cc4n(c(=O)n3)C[C@@H]3COCN43)cc2F)cn1 [Example E158, (R)-6-((4-((1-ethyl-1H-pyrazol-4-yl)oxy)-3,5-difluorobenzyl)oxy)-10,10a-dihydro-1H-oxazolo[3′,4′:3,4]imidazo[1,2-c]pyrimidin-8(3H)-one]
≤ 1 | ≤ 100 | O=c1nc(OCc2cc(F)c(Oc3ccc(C(F)(F)F)nc3)c(F)c2)cc2n1CC1CCCN21 (stereo not shown) [Example E78, 3-((3,5-Difluoro-4-((6-(trifluoromethyl)pyridin-3-yl)oxy)benzyl)oxy)-7,8,8a,9-tetrahydro pyrrolo[1′,2′:3,4]imidazo[1,2-c]pyrimidin-1(6H)-one]
≤ 100 | ≤ 100 | Cc1cc(Oc2c(F)cc(COc3cc4n(c(=O)n3)C[C@@H]3COCCN43)cc2F)ccn1 [Example E117, (R)-7-((3,5-difluoro-4-((2-methylpyridin-4-yl)oxy)benzyl)oxy)-3,4,11,11atetrahydropyrimido[6′,1′:2,3]imidazo[5,1-c][1,4]oxazin-9(1H)-one]
≤ 100 | ≤ 100 | Cn1cc(Oc2c(F)cc(COc3cc4n(c(=O)n3)C[C@H]3COCCN43)cc2F)cn1 [Example E114, (S)-7-((3,5-difluoro-4-((1-methyl-1H-pyrazol-4-yl)oxy)benzyl)oxy)-3,4,11,11a-tetrahydropyrimido[6′,1′:2,3]imidazo[5,1-c][1,4]oxazin-9(1H)-one]
≤ 100 | ≤ 10000 | N#Cc1cc(COc2cc3n(c(=O)n2)C[C@@H]2CCCN32)ccc1Oc1cccc(F)c1 [Example E86, (S)-2-(3-fluorophenoxy)-5-(((1-oxo-1,6,7,8,8a,9-hexahydropyrrolo[1′,2′:3,4]imidazo[1,2-c]pyrimidin-3-yl)oxy)methyl)benzonitrile]
